According to the supplement of paper PMC7600603:

How the values were obtained:
DLD1 NRF2-GOF [1] = settings: 72 h; CellTiter-Glo viability
Method in brief: (§1)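 EC50 and drug sensitivity score, the latter a normalised area under the curve, were calculated from logistic dose-response fits. The fits had four parameters and used CellTiter-Glo viability data read on a Pherastar FS reader 72 h after treatment, normalised to vehicle wells and 100-μM positive-control wells. Treated cells were isogenic DLD1 colorectal cancer cells, NRF2 wild-type or CRISPR gain-of-function, exposed in 384-well plates to library compounds at 5 concentrations spanning a 10,000-fold range.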

DLD1 NRF2-WT [2] = settings: 72 h; CellTiter-Glo viability
Method in brief: as §1

DLD1 NRF2-GOF [3] = assay: TC50 cytotoxicity; higher = less toxic; settings: 72 h; CellTox Green cytotoxicity
Method in brief: (§2)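 Isogenic DLD1 colorectal cancer cells differing in NRF2 status, one line edited by CRISPR, were cultured in DMEM with 10% FBS and treated in 384-well plates with library compounds at 5 concentrations spanning a 10,000-fold range. Plates were read after 72 h with CellTox Green on a Pherastar FS reader, and signals were normalised to vehicle wells and 100-μM positive-control wells. Cytotoxicity was summarised as TC50 and as a drug sensitivity score, a normalised area under the curve, both from logistic dose-response fits.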

DLD1 NRF2-WT [4] = assay: TC50 cytotoxicity; higher = less toxic; settings: 72 h; CellTox Green cytotoxicity
Method in brief: as §2

DLD1 NRF2-GOF [5] = assay: drug sensitivity score (DSS) cytotoxicity (DSS score); higher = more toxic; extreme values may be limits of the assay; settings: 72 h; CellTox Green cytotoxicity
Method in brief: as §2

DLD1 NRF2-WT [6] = assay: as above; settings: 72 h; CellTox Green cytotoxicity
Method in brief: as §2

DLD1 NRF2-GOF [7] = assay: drug sensitivity score (DSS) viability (DSS score); higher = more sensitive; extreme values may be limits of the assay; settings: 72 h; CellTiter-Glo viability
Method in brief: as §1

DLD1 NRF2-WT [8] = assay: as above; settings: 72 h; CellTiter-Glo viability
Method in brief: as §1

SMILES	EC50 viability (DLD1 NRF2-GOF [1]) [nM]	EC50 viability (DLD1 NRF2-WT [2]) [nM]	TC50 cytotoxicity (DLD1 NRF2-GOF [3]) [nM]	TC50 cytotoxicity (DLD1 NRF2-WT [4]) [nM]	drug sensitivity score (DLD1 NRF2-GOF [5])	drug sensitivity score (DLD1 NRF2-WT [6])	drug sensitivity score (DLD1 NRF2-GOF [7])	drug sensitivity score (DLD1 NRF2-WT [8])
Cc1[nH]c2ccccc2c1CCNCc1ccc(/C=C/C(=O)NO)cc1 [Panobinostat]	70.1	64.9	> 1000	124	1.1	6.6	11.2	13.3
CCCc1cc(C)[nH]c(=O)c1CNC(=O)c1cc(-c2ccnc(N3CCN(C)CC3)c2)cc2c1cnn2C(C)C [GSK343]	> 1000	> 1000	> 1000	> 1000	0	0	0	0
COC(=O)c1ccc([C@H]2c3[nH]c4ccccc4c3C[C@H](C(=O)OC)N2C(=O)CCl)cc1 [RSL3]	17.4	> 10000	> 10000	> 10000	0	0	9	6.6
C[C@@H](C(=O)O)c1ccc(-c2ccccc2)c(F)c1 [Tarenflurbil]	> 10000	> 10000	> 10000	> 10000	0	0	0	0
COc1cc2c(Oc3ccc4[nH]c(C)cc4c3F)ncnc2cc1OCCCN1CCCC1 [Cediranib]	12.1	44.2	> 1000	> 1000	0	0	10.2	7
Cc1cc(Nc2ncc(Cl)c(Nc3ccccc3S(=O)(=O)C(C)C)n2)c(OC(C)C)cc1C1CCNCC1 [Ceritinib]	728	546	> 2500	> 2500	0	0	4.2	5.2
C1=N/C2=N/c3ccc(OCCN4CCCC4)c(c3)COC/C=C/COCc3cccc(c3)C(=C1)N2 [Pacritinib]	855	511	1800	1980	8.6	8.1	12.6	15.1
Cc1ccc(F)c(NC(=O)Nc2ccc(-c3cccc4[nH]nc(N)c34)cc2)c1 [Linifanib]	> 1000	> 1000	> 1000	> 1000	0	0	1.1	0.5
CC(C)C[C@H](NC(=O)CNC(=O)c1cc(Cl)ccc1Cl)B(O)O [Ixazomib]	125	110	246	148	6.8	9.6	10.3	11
NC[C@@](O)(c1ccc(Cl)cc1)c1ccc(-c2cn[nH]c2)cc1	435	1	> 10000	> 10000	0	0	10.6	10.8
NC(=O)Nc1cc(-c2cccc(F)c2)sc1C(=O)N[C@H]1CCCNC1 [AZD7762]	106	175	362	247	1.7	2.2	7.6	5.3
CCN(CCO)CCCOc1ccc2c(Nc3cc(CC(=O)Nc4cccc(F)c4)[nH]n3)ncnc2c1 [AZD1152-HQPA]	65.8	35.5	56.8	53.4	7.7	5.5	6.7	6.6
Nc1ccccc1NC(=O)c1ccc(CNC(=O)OCc2cccnc2)cc1 [Entinostat]	> 10000	> 10000	> 10000	> 10000	0	0	0	0
Cn1cc(C2=C(c3cn(C4CCN(Cc5ccccn5)CC4)c4ccccc34)C(=O)NC2=O)c2ccccc21 [Enzastaurin]	> 10000	> 10000	> 10000	> 10000	0	0	0	0
C[C@]1(c2nc3c(C(N)=O)cccc3[nH]2)CCCN1 [Veliparib]	> 10000	1570	> 10000	> 10000	0	0	0	2.9
N#CC(c1ccnc(OCc2ccc(CN3CCOCC3)cc2)n1)c1nc2ccccc2s1 (configuration not stated) [Bentamapimod]	> 10000	> 10000	> 10000	> 10000	0	0	0	0
Nc1nc(Cl)nc2c1ncn2[C@@H]1O[C@H](CO)[C@@H](O)[C@@H]1F [Clofarabine]	171	166	> 10000	> 10000	0	0	13.2	11.8
Cc1cc(Nc2cc(CN3CCOCC3)c3nc(C)c(Cc4ccc(Cl)cc4F)n3n2)n[nH]1 [Gandotinib]	2090	2280	1620	1890	6.1	2.8	6.2	5
CC(C)(C)c1nc(-c2cccc(NS(=O)(=O)c3c(F)cccc3F)c2F)c(-c2ccnc(N)n2)s1 [Dabrafenib]	> 2500	993	> 2500	> 2500	0	0	0.6	1.4
C[C@H]1Oc2cc(cnc2N)-c2c(nn(C)c2C#N)CN(C)C(=O)c2ccc(F)cc21	> 1000	> 1000	> 1000	> 1000	0	0	1.6	0
CO[C@@H](C(=O)N1Cc2[nH]nc(NC(=O)c3ccc(N4CCN(C)CC4)cc3)c2C1)c1ccccc1 [Danusertib]	92.1	357	> 10000	> 10000	0	2.4	16.6	10.4
CC1(C)OCCn2c1nc1c(N3CCOCC3)nc(-c3cnc(N)nc3)nc12 [GDC-0084]	1340	725	> 10000	3650	0.3	1.1	8.4	10.9

SMILES	EC50 viability (DLD1 NRF2-GOF [1]) [nM]	EC50 viability (DLD1 NRF2-WT [2]) [nM]	TC50 cytotoxicity (DLD1 NRF2-GOF [3]) [nM]	TC50 cytotoxicity (DLD1 NRF2-WT [4]) [nM]	drug sensitivity score (DLD1 NRF2-GOF [5])	drug sensitivity score (DLD1 NRF2-WT [6])	drug sensitivity score (DLD1 NRF2-GOF [7])	drug sensitivity score (DLD1 NRF2-WT [8])
CCOC(=O)CCNc1cc(N2CCc3ccccc3CC2)nc(-c2ccccn2)n1 [GSK-J4]	3550	2950	2800	> 100000	7.8	0	16.4	17
COc1cc2ncnc(Nc3ccc(F)c(Cl)c3)c2cc1OCCCN1CCOCC1 [Gefitinib]	4080	2460	> 10000	> 10000	0	0	1.5	3.7
COc1ccccc1S(=O)(=O)Nc1ccc2c(c1)CN(C)C(=O)N2 [PFI-1]	> 30000	1940	> 30000	> 30000	0	0	0	3.2
Cn1cc(C[C@@H](N)C(=O)O)c2ccccc21 [1-methyl-D-tryptophan]	552	874	> 5000	> 5000	0	0	3.2	2.3
O=C(NOCCO)c1ccc2cncn2c1Nc1ccc(I)cc1F [GDC-0623]	> 2500	429	> 2500	> 2500	0	0	0	3.3
COC(=O)C[C@](O)(CCCC(C)(C)O)C(=O)O[C@@H]1C(OC)=C[C@]23CCCN2CCc2cc4c(cc2[C@H]13)OCO4 [Omacetaxine]	54.6	51.9	329	346	8.4	10.1	26.9	27.6
O=C(O)c1ccc(-c2c[nH]c3ncc(-c4ccccc4)cc23)cc1C1CCCC1	908	38.1	3470	> 10000	2	0.4	6.6	12.1
COCC[n+]1c2c(n(Cc3cnccn3)c1C)C(=O)c1ccccc1C2=O [Sepantronium bromide]	3.7	6.8	27.5	28.7	30.9	21.7	41.8	38.7
CN(C)C/C=C/C(=O)Nc1cc2c(Nc3ccc(F)c(Cl)c3)ncnc2cc1O[C@H]1CCOC1 [Afatinib]	145	148	> 1000	> 1000	0	0	2.9	3.3
CNC(=O)c1cccc2cc(Oc3ccnc4cc(OCC5(N)CC5)c(OC)cc34)ccc12 [Lucitanib]	> 10000	796	> 10000	> 10000	0	0	1.3	2.7
Cc1ccc(Nc2nccc(N(C)c3ccc4c(C)n(C)nc4c3)n2)cc1S(N)(=O)=O [Pazopanib]	44.4	53.1	> 10000	> 10000	0	0	10.2	6.9
CCn1c(C(=O)N(C2CC2)C2CC2)cc2c3c(ncn3C)c(Nc3cc(C)n(C)n3)nc21	1170	218	> 10000	> 10000	0	0	7.1	7.2
NC1(C(=O)N[C@@H](CCO)c2ccc(Cl)cc2)CCN(c2ncnc3[nH]ccc23)CC1 [AZD-5363]	1510	687	> 10000	> 10000	0	0	5.2	6.1
Nc1ncnc2c1nc(N)n2[C@@H]1O[C@H](CO)[C@@H](O)[C@H]1O [8-amino-adenosine]	1500	1070	5200	4710	11.2	11.8	18.2	20
CCS(=O)(=O)N1CCN(c2ccc(Nc3ncc(C(N)=O)c(NC4CC4)n3)cc2)CC1 [Cerdulatinib]	64.9	322	> 10000	> 10000	0	0	13.8	4.3
CN(c1ncccc1CNc1nc(Nc2ccc3c(c2)CC(=O)N3)ncc1C(F)(F)F)S(C)(=O)=O	3700	2290	> 10000	> 10000	0	0	4.1	6.7
Nc1nc2[nH]cnc2c(=S)[nH]1 [Thioguanine]	1290	3500	> 10000	> 10000	0	0.2	9.4	4.4
Cc1ncc(Cl)cc1NCc1ccc(C(=O)N[C@@H](CC2CCCC2)C(=O)NC2CC2)s1	> 5000	401	> 5000	> 5000	0	0	0	4
Nc1nc(Cl)nc2c1ncn2[C@H]1C[C@H](O)[C@@H](CO)O1 [Cladribine]	145	25.6	> 1000	> 1000	0	0	5.5	10.4
CO[C@@H]1[C@H](N(C)C(=O)c2ccccc2)C[C@H]2O[C@]1(C)n1c3ccccc3c3c4c(c5c6ccccc6n2c5c31)C(=O)NC4 [Midostaurin]	499	880	801	686	12.9	12.4	12.4	9.8
N#Cc1ccnc(N2C(=O)CC[C@H]2C(=O)N(c2cncc(F)c2)[C@H](C(=O)NC2CC(F)(F)C2)c2ccccc2Cl)c1 [Ivosidenib]	349	> 10000	> 10000	> 10000	0	0	6.1	0.5
Cc1cnc(Nc2ccc(OCCN3CCCC3)cc2)nc1Nc1cccc(S(=O)(=O)NC(C)(C)C)c1 [Fedratinib]	1890	1410	2500	2400	4.3	3.8	8.2	9.6
